From PubChem BioAssay AID248 (DTP/NCI, 2004) come the findings set out here.

Structures are written as SMILES. Inconclusive results and toxic doses are left out.

In the assay the test system is L1210 leukemia ip in BDF1 mice, survival T/C. Kind of assay: NCI In Vivo Anticancer Drug Screen. Data for tumor model L1210 Leukemia (intraperitoneal) in B6D2F1 (BDF1) mice. The note with it: endpoint: mean survival time, higher = longer survival. A digest of the protocol:
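Tumor cells were implanted, animals were treated, and survival was followed. The result divides the treated measurement by the vehicle-control measurement.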

Setting [1] is: dose: 100.0 mg/kg/injection, schedule: Q01DX009 (ip), vehicle: saline with Tween-80.
Where [2] appears, read: dose: 100.0 mg/kg/injection, schedule: Q04DX003 (ip), vehicle: saline with Tween-80.
Where [3] appears, read: dose: 200.0 mg/kg/injection, schedule: Q01DX009 (ip), vehicle: saline with Tween-80.
Where [4] appears, read: dose: 200.0 mg/kg/injection, schedule: Q04DX003 (ip), vehicle: saline with Tween-80.
The mark [5] stands for this setting: dose: 400.0 mg/kg/injection, schedule: Q01DX009 (ip), vehicle: saline with Tween-80.
Where [6] appears, read: dose: 400.0 mg/kg/injection, schedule: Q04DX003 (ip), vehicle: saline with Tween-80.
Setting [7] is: dose: 100.0 mg/kg/injection, schedule: Q01DX009 (ip), vehicle: other.
[8] abbreviates: dose: 200.0 mg/kg/injection, schedule: Q01DX009 (ip), vehicle: other.
The mark [9] stands for this setting: dose: 400.0 mg/kg/injection, schedule: Q01DX009 (ip), vehicle: other.
Where [10] appears, read: dose: 50.0 mg/kg/injection, schedule: Q01DX001 (ip), vehicle: saline.
Setting [11] is: dose: 100.0 mg/kg/injection, schedule: Q01DX001 (ip), vehicle: saline.
[12] abbreviates: dose: 200.0 mg/kg/injection, schedule: Q01DX001 (ip), vehicle: saline.
Where [13] appears, read: dose: 400.0 mg/kg/injection, schedule: Q01DX001 (ip), vehicle: saline.
Where [14] appears, read: dose: 100.0 mg/kg/injection, schedule: Q04DX002 (ip), vehicle: Klucel (hydroxypropylcellulose) (HPC).
Setting [15] is: dose: 200.0 mg/kg/injection, schedule: Q04DX002 (ip), vehicle: Klucel (hydroxypropylcellulose) (HPC).

Regarding `O=C(Nc1ccccc1)Oc1c(Cl)cc(Cl)cc1Cl`, the T/C was 97 % of control (dose: 0.78 mg/kg/injection, schedule: Q04DX002 (ip), vehicle: Klucel (hydroxypropylcellulose) (HPC)); 112 % of control (dose: 1.56 mg/kg/injection, schedule: Q04DX002 (ip), vehicle: Klucel (hydroxypropylcellulose) (HPC)); 94 % of control (dose: 3.13 mg/kg/injection, schedule: Q04DX002 (ip), vehicle: Klucel (hydroxypropylcellulose) (HPC)); 92 % of control (dose: 6.25 mg/kg/injection, schedule: Q04DX002 (ip), vehicle: Klucel (hydroxypropylcellulose) (HPC)); 110 % of control (dose: 12.5 mg/kg/injection, schedule: Q04DX002 (ip), vehicle: Klucel (hydroxypropylcellulose) (HPC)); 95 % of control (dose: 25.0 mg/kg/injection, schedule: Q04DX002 (ip), vehicle: Klucel (hydroxypropylcellulose) (HPC)).

`O=c1oc2ccc([N+](=O)[O-])cc2o1`: for the setting “dose: 75.0 mg/kg/injection, schedule: Q01DX001 (ip), vehicle: acetone”, the T/C was 108 % of control.

As to `CCCCCCCCCCCCCC[S+](C)C`, the T/C (dose: 12.5 mg/kg/injection, schedule: Q01DX009 (ip), vehicle: saline) is 108 % of control; the T/C (dose: 12.5 mg/kg/injection, schedule: Q04DX003 (ip), vehicle: saline) was 101 % of control; the T/C (dose: 25.0 mg/kg/injection, schedule: Q01DX009 (ip), vehicle: saline) is 123 % of control; the T/C (dose: 25.0 mg/kg/injection, schedule: Q04DX003 (ip), vehicle: saline) is 90 % of control; the T/C (dose: 50.0 mg/kg/injection, schedule: Q04DX003 (ip), vehicle: saline) is 96 % of control.

Regarding `CSc1cc(C(=O)Nc2ccc(C3=NCCN3)cc2)ccc1C(=O)Nc1ccc(C2=NCCN2)cc1`, the T/C by setting is: (dose: 0.5 mg/kg/injection, schedule: Q01DX Z (ip), vehicle: carboxymethylcellulose (CMC)) 109 % of control; (dose: 0.62 mg/kg/injection, schedule: Q01DX015 (ip), vehicle: methylcellulose (MC)) 112 % of control; (dose: 1.25 mg/kg/injection, schedule: Q01DX015 (ip), vehicle: methylcellulose (MC)) 108 % of control; (dose: 3.75 mg/kg/injection, schedule: Q01DX Z (ip), vehicle: carboxymethylcellulose (CMC)) 203 % of control; (dose: 7.5 mg/kg/injection, schedule: Q01DX Z (ip), vehicle: carboxymethylcellulose (CMC)) 231 % of control; (dose: 10.0 mg/kg/injection, schedule: Q01DX015 (ip), vehicle: methylcellulose (MC)) 231 % of control. In addition, the T/C (dose: 10.0 mg/kg/injection, schedule: Q01DX Z (ip), vehicle: carboxymethylcellulose (CMC)) was 236 % of control; the T/C (dose: 15.0 mg/kg/injection, schedule: Q01DX Z (ip), vehicle: carboxymethylcellulose (CMC)) is 280 % of control; the T/C (dose: 20.0 mg/kg/injection, schedule: Q01DX015 (ip), vehicle: methylcellulose (MC)) is 286 % of control; the T/C (dose: 20.0 mg/kg/injection, schedule: Q01DX Z (ip), vehicle: carboxymethylcellulose (CMC)) is 287 % of control; the T/C (dose: 30.0 mg/kg/injection, schedule: Q01DX Z (ip), vehicle: carboxymethylcellulose (CMC)) was 178 % of control; the T/C (dose: 40.0 mg/kg/injection, schedule: Q01DX015 (ip), vehicle: methylcellulose (MC)) is 221 % of control. Moreover, the T/C is 168 % of control (dose: 40.0 mg/kg/injection, schedule: Q01DX Z (ip), vehicle: carboxymethylcellulose (CMC)); 102 % of control (dose: 50.0 mg/kg/injection, schedule: Q01DX Z (oral), vehicle: carboxymethylcellulose (CMC)); 100 % of control (dose: 100.0 mg/kg/injection, schedule: Q01DX Z (oral), vehicle: carboxymethylcellulose (CMC)); 167 % of control (dose: 150.0 mg/kg/injection, schedule: Q01DX001 (ip), vehicle: methylcellulose (MC)); 104 % of control (dose: 200.0 mg/kg/injection, schedule: Q01DX Z (oral), vehicle: carboxymethylcellulose (CMC)); 95 % of control (dose: 400.0 mg/kg/injection, schedule: Q01DX Z (oral), vehicle: carboxymethylcellulose (CMC)).

For `CC1(C)C(=O)C(C)(C)C1=Nc1ccccc1`, the T/C under setting [1] is 95 % of control; the T/C under setting [2] was 108 % of control; the T/C under setting [3] was 94 % of control; the T/C under setting [4] is 106 % of control; the T/C under setting [5] is 97 % of control; the T/C under setting [6] was 106 % of control.

Regarding `CC(C)=CCC/C(C)=C/COC(=O)Cc1ccccc1`, the T/C is, setting by setting: under setting [1], 103 % of control; under setting [2], 97 % of control; under setting [3], 110 % of control; under setting [4], 98 % of control; under setting [5], 103 % of control; under setting [6], 103 % of control.

Regarding `O=C(NC(=S)NCc1ccccc1)c1ccccc1`, the T/C reads like this: (dose: 75.0 mg/kg/injection, schedule: Q01DX001 (ip), vehicle: saline) 98 % of control; (dose: 150.0 mg/kg/injection, schedule: Q01DX001 (ip), vehicle: saline) 93 % of control; (dose: 300.0 mg/kg/injection, schedule: Q01DX001 (ip), vehicle: saline) 98 % of control.

Take `CC(/C=C/c1ccc2c(c1)OCO2)[N+](=O)[O-]` (configuration not stated): the T/C was 103 % of control (dose: 100.0 mg/kg/injection, schedule: Q01DX001 (ip), vehicle: Klucel (hydroxypropylcellulose) (HPC)); 103 % of control (dose: 200.0 mg/kg/injection, schedule: Q01DX001 (ip), vehicle: Klucel (hydroxypropylcellulose) (HPC)); 106 % of control (dose: 400.0 mg/kg/injection, schedule: Q01DX001 (ip), vehicle: Klucel (hydroxypropylcellulose) (HPC)).

For the compound `O=C1OCCN1/N=C\c1ccccc1`, the T/C under setting [7] was 116 % of control, the T/C under setting [8] was 98 % of control and the T/C under setting [9] was 97 % of control.

Regarding `CN(CS(=O)(=O)O)c1cc(F)cc(F)c1`, the T/C was 102 % of control under setting [10], 102 % of control under setting [11], 98 % of control under setting [12] and 98 % of control under setting [13].

Consider `COc1ccccc1-n1c(=O)c(N=Nc2ccccc2C)c(O)n(-c2ccccc2C)c1=S`, for which the T/C was 106 % of control (dose: 37.5 mg/kg/injection, schedule: Q01DX001 (ip), vehicle: Klucel (hydroxypropylcellulose) (HPC)); 106 % of control (dose: 75.0 mg/kg/injection, schedule: Q01DX001 (ip), vehicle: Klucel (hydroxypropylcellulose) (HPC)); 108 % of control (dose: 150.0 mg/kg/injection, schedule: Q01DX001 (ip), vehicle: Klucel (hydroxypropylcellulose) (HPC)).

With `O=C(O)CCNc1ccc(Cl)cc1[N+](=O)[O-]`, the T/C was 97 % of control under setting [14] and 120 % of control under setting [15].

With `c1ccc(-c2nc3ccccc3c3ccccc23)cc1`, the T/C is 101 % of control (dose: 100.0 mg/kg/injection, schedule: Q04DX003 (ip), vehicle: Klucel (hydroxypropylcellulose) (HPC)); 103 % of control (dose: 200.0 mg/kg/injection, schedule: Q04DX003 (ip), vehicle: Klucel (hydroxypropylcellulose) (HPC)); 106 % of control (dose: 400.0 mg/kg/injection, schedule: Q04DX003 (ip), vehicle: Klucel (hydroxypropylcellulose) (HPC)).

Regarding `CNc1nc(SCc2ccc(F)cc2)ncc1C`, the T/C is, setting by setting: (dose: 25.0 mg/kg/injection, schedule: Q01DX Z (ip), vehicle: methylcellulose (MC)) 96 % of control; (dose: 50.0 mg/kg/injection, schedule: Q01DX Z (ip), vehicle: methylcellulose (MC)) 103 % of control.

For `O=C1c2ccccc2S(=O)N1OCc1ccccc1` (configuration not stated), the T/C under setting [14] is 88 % of control and the T/C under setting [15] was 100 % of control.

As for `Cc1ccc(CN(CC(=O)O)S(C)(=O)=O)cc1`, the T/C is, setting by setting: under setting [7], 105 % of control; (dose: 100.0 mg/kg/injection, schedule: Q04DX003 (ip), vehicle: other) 95 % of control; under setting [8], 98 % of control; (dose: 200.0 mg/kg/injection, schedule: Q04DX003 (ip), vehicle: other) 97 % of control; under setting [9], 110 % of control; (dose: 400.0 mg/kg/injection, schedule: Q04DX003 (ip), vehicle: other) 101 % of control.

On to `CCC(CC)(c1ccccc1)C(OC(N)=O)c1ccccc1` (configuration not stated), for which the T/C by setting is: under setting [10], 90 % of control; under setting [11], 101 % of control; under setting [12], 92 % of control; under setting [13], 90 % of control.
